Reference: the RepoRT retention time repository (doi:10.1007/s11356-017-9929-x)

Experiment: RP, GL Sciences Inertsil ODS-4, 150 × 2.1 mm, 3 µm, 40 °C, 0.3 mL/min, estimated dead time 1.1 min; A: water + 5 mM ammonium acetate; B: methanol + 5 mM ammonium acetate; gradient (min/%B) 0/5 30/95 50/95
Details: stereoisomer not certain

`Cc1nc(N(C)C)nc(OC(=O)N(C)C)c1C` and `[2H]C([2H])([2H])N(C(=O)Oc1nc(N(C)C)nc(C)c1C)C([2H])([2H])[2H]` are within 1.5-fold of each other in LC retention time: 23.4 min for the first, 22.8 min for the second.

`Cc1ccnc(NS(=O)(=O)c2ccc(N)cc2)n1` and `Nc1ccc(S(=O)(=O)Nc2ncccn2)cc1` are within 1.5-fold of each other in LC retention time: 11.6 min for the first, 8.05 min for the second.

`CSc1nnc(C(C)(C)C)c(=O)n1N` and `CNC(=O)N(C)c1nnc(C(C)(C)C)s1` are within 1.5-fold of each other in LC retention time: 20.6 min for the first, 21.7 min for the second.

`CCS(=O)(=O)c1nc2ccccn2c1S(=O)(=O)NC(=O)Nc1nc(OC)cc(OC)n1` and `COC(=O)c1ccccc1CS(=O)(=O)NC(=O)Nc1nc(OC)cc(OC)n1` are within 1.5-fold of each other in LC retention time: 16.3 min for the first, 22.1 min for the second.

Going from `[2H]C([2H])([2H])OP(N)(=O)SC([2H])([2H])[2H]` (configuration not stated) to `[2H]C([2H])([2H])Oc1cc(NS(=O)(=O)c2ccc(N)cc2)nc(OC([2H])([2H])[2H])n1`, the LC retention time rises from 4.22 min to 15.1 min (3.6-fold).

`CCC1CCCC(OC2CCC(N(C)C)C(C)O2)C(C)C(=O)C2=CC3C(C=CC4CC(OC5OC(C)C(OC)C(OC)C5OC)CC43)C2CC(=O)O1` (configuration not stated) and `CCC1CCCC(OC2CCC(N(C)C)C(C)O2)C(C)C(=O)C2=CC3C(C=C(C)C4CC(OC5OC(C)C(OC)C(OC)C5OC)CC43)C2CC(=O)O1` (configuration not stated) are within 1.5-fold of each other in LC retention time: 34.5 min for the first, 34.9 min for the second.

First: CCCCNC(=O)NS(=O)(=O)c1ccc(C)cc1
Second: Cc1nnc(NS(=O)(=O)c2ccc(N)cc2)s1
The LC retention time of the first is 2.2-fold higher: 19.6 min for the first, 9.03 min for the second.

`[2H]C([2H])([2H])NC(=O)Oc1cccc2c1OC(C)(C)C2` and `CNC(=O)Oc1cccc2c1OC(C)(C)C2` are within 1.5-fold of each other in LC retention time: 20.5 min for the first, 21.4 min for the second.

`C#CC1(OC(C)=O)CCC2C3CCC4=CC(=NO)CCC4C3CCC21CC` (configuration not stated) and `CC12CCC(=O)C=C1CCC1C2CCC2(C)C(O)CCC12` (configuration not stated) are within 1.5-fold of each other in LC retention time: 30.3 min for the first, 26.6 min for the second.

`COP(=S)(OC)Oc1ccc(S(C)=O)c(C)c1` (configuration not stated) and `COP(=O)(OC)Oc1ccc(S(C)=O)c(C)c1` (configuration not stated) are within 1.5-fold of each other in LC retention time: 22.2 min for the first, 16.9 min for the second.

`Cc1cccc2sc3nncn3c12` and `CNC(=O)N(C)c1nc2ccccc2s1` are within 1.5-fold of each other in LC retention time: 18.9 min for the first, 23.8 min for the second.

`CN=C(NC#N)NCCSCc1nc[nH]c1C` and `[2H]C([2H])([2H])N=C(NC#N)NCCSCc1nc[nH]c1C` are the same in LC retention time: 13.3 min for the first, 13.3 min for the second.

`Nc1ccc(S(=O)(=O)Nc2nccs2)cc1` and `COc1cc(NS(=O)(=O)c2ccc(N)cc2)ncn1` are within 1.5-fold of each other in LC retention time: 10.6 min for the first, 11.8 min for the second.

`CC(Oc1ccc2ccccc2c1)C(=O)Nc1ccccc1` (configuration not stated) and `CSC1=NC(C)(c2ccccc2)C(=O)N1Nc1ccccc1` (configuration not stated) are within 1.5-fold of each other in LC retention time: 28.8 min for the first, 26.3 min for the second.

First: CNC(=C[N+](=O)[O-])NCCSCc1ccc(CN(C)C)o1
Second: CCCCOC(=O)N(C)SN(C)C(=O)Oc1cccc2c1OC(C)(C)C2
The LC retention time of the first is 2.5-fold lower: 12.5 min for the first, 31.5 min for the second.

`CCOc1nc(NC)nc(NC(=O)NS(=O)(=O)c2ccccc2C(=O)OC)n1` and `COC(=O)c1ccccc1S(=O)(=O)NC(=O)Nc1nc(C)nc(OC)n1` are within 1.5-fold of each other in LC retention time: 17.7 min for the first, 13.9 min for the second.

First: CC12C=CC(=O)C=C1CCC1C2C(O)CC2(C)C1CCC2(O)C(=O)CO (configuration not stated)
Second: CCC(C(=O)O)C1CCC(C)C(C(C)C(O)C(C)C(=O)C(CC)C2OC3(C=CC(O)C4(CCC(C)(C5CCC(O)(CC)C(C)O5)O4)O3)C(C)CC2C)O1 (configuration not stated)
The LC retention time of the first is 1.6-fold lower: 22.2 min for the first, 35.5 min for the second.

`CCC1OC(=O)C(C)C(OC2CC(C)(OC)C(O)C(C)O2)C(C)C(OC2OC(C)CC(N(C)C)C2O)C(C)(OC)CC(C)C(=O)C(C)C(O)C1(C)O` (configuration not stated) and `CCC1OC(=O)C(C)C(OC2CC(C)(OC)C(O)C(C)O2)C(C)C(OC2OC(C)CC(N(C)C)C2O)C(C)(O)CC(C)C(=O)C(C)C(O)C1(C)O` (configuration not stated) are within 1.5-fold of each other in LC retention time: 27.2 min for the first, 25.5 min for the second.

`CC(=O)CC(c1ccccc1)c1c(O)c2ccccc2oc1=O` (configuration not stated) and `CNC(=O)C(=NOC)c1ccccc1Oc1ccccc1` are within 1.5-fold of each other in LC retention time: 19.1 min for the first, 24.6 min for the second.

`COC(=O)c1ccc(CNS(C)(=O)=O)cc1S(=O)(=O)NC(=O)Nc1nc(OC)cc(OC)n1` and `COc1cc(OC)nc(NC(=O)NS(=O)(=O)c2cc(NC=O)ccc2C(=O)N(C)C)n1` are within 1.5-fold of each other in LC retention time: 17.4 min for the first, 15.9 min for the second.

`CN1CCN(CC(=O)N2c3ccccc3C(=O)Nc3cccnc32)CC1` and `NC1=NCC2c3ccccc3Cc3ccccc3N12` (configuration not stated) are within 1.5-fold of each other in LC retention time: 15.8 min for the first, 20.1 min for the second.

`CCC(C)c1ccccc1OC(=O)NC` (configuration not stated) and `CCOc1ccc(NC(C)=O)cc1` are within 1.5-fold of each other in LC retention time: 25.2 min for the first, 18.5 min for the second.

`CC(C)(C)NCC(O)c1ccc(O)c(CO)c1` (configuration not stated) and `CC(C)(C)NCC(O)c1cc(O)cc(O)c1` (configuration not stated) are within 1.5-fold of each other in LC retention time: 9.3 min for the first, 8.97 min for the second.

Going from `COc1ccc(CCN(C)CCCC(C#N)(c2ccc(OC)c(OC)c2)C(C)C)cc1OC` (configuration not stated) to `COc1cc(C)c(Cc2cnc(N)nc2N)cc1OC`, the LC retention time falls from 26.7 min to 17.6 min (1.5-fold).

`CCCC1CC(C(=O)NC(C(C)O)C2OC(SC)C(O)C(O)C2O)N(C)C1` (configuration not stated) and `CN1C2CC(OC(=O)C(CO)c3ccccc3)CC1C1OC12` (configuration not stated) are within 1.5-fold of each other in LC retention time: 21 min for the first, 16.4 min for the second.

`Cc1ccc(C(=O)C(C)CN2CCCCC2)cc1` (configuration not stated) and `OC(CCCN1CCCCC1)(c1ccccc1)c1ccccc1` are within 1.5-fold of each other in LC retention time: 23.4 min for the first, 23.2 min for the second.

`CC#Cc1cc(C)nc(Nc2ccccc2)n1` and `Cc1cc(C2CC2)nc(Nc2ccccc2)n1` are within 1.5-fold of each other in LC retention time: 28.1 min for the first, 29.8 min for the second.

Compared with `Cc1cc(=O)n(-c2ccccc2)n1C`, `Cc1ccc(NC(=O)NC(C)(C)c2ccccc2)cc1` is 1.7-fold higher in LC retention time: 15.4 min for the first, 26.7 min for the second.

`CCOC(=O)c1cnn(C)c1S(=O)(=O)NC(=O)Nc1nc(OC)cc(OC)n1` and `COc1cc(OC)nc(NC(=O)NS(=O)(=O)c2c(-c3nnn(C)n3)cnn2C)n1` are within 1.5-fold of each other in LC retention time: 18.2 min for the first, 14.7 min for the second.

`CCOC(=O)NCCOc1ccc(Oc2ccccc2)cc1` and `Cc1nn(C)c(Oc2ccccc2)c1C=NOCc1ccc(C(=O)OC(C)(C)C)cc1` are within 1.5-fold of each other in LC retention time: 28.8 min for the first, 33.5 min for the second.

`COCCc1ccc(OCC(O)CNC(C)C)cc1` (configuration not stated) and `CC(C)NCC(O)COc1ccc(CCOCC2CC2)cc1` (configuration not stated) are within 1.5-fold of each other in LC retention time: 17.8 min for the first, 21.6 min for the second.

`COC(=O)c1sccc1S(=O)(=O)NC(=O)Nc1nc(C)nc(OC)n1` and `COC(=O)c1ccccc1S(=O)(=O)NC(=O)N(C)c1nc(C)nc(OC)n1` are within 1.5-fold of each other in LC retention time: 13.9 min for the first, 16.9 min for the second.

`COc1ccc2c(c1)C13CCCCC1C(C2)N(C)CC3` (configuration not stated) and `CC1CCCCC1NC(=O)Nc1ccccc1` (configuration not stated) are within 1.5-fold of each other in LC retention time: 24.2 min for the first, 25.6 min for the second.

`NC(=O)N1c2ccccc2C=Cc2ccccc21` and `CN(C)CCCN1c2ccccc2CCc2ccccc21` are within 1.5-fold of each other in LC retention time: 21.9 min for the first, 26 min for the second.

`CCNc1nc(NC(C)C)nc(SC)n1` and `CSc1nc(NC(C)C)nc(NC(C)C)n1` are within 1.5-fold of each other in LC retention time: 25.9 min for the first, 27.6 min for the second.

`COC=C(C(=O)OC)c1ccccc1Oc1cc(Oc2ccccc2C#N)ncn1` and `CON=C(C)c1cccc(Oc2nc(OC)cc(OC)n2)c1C(=O)OC` are within 1.5-fold of each other in LC retention time: 26.1 min for the first, 26.5 min for the second.

Compared with `CC1=CC(O)CC(=O)Cc2nc(co2)C(=O)N2CCC=C2C(=O)OC(C(C)C)C(C)C=CC(=O)NCC=C1` (configuration not stated), `CC(C)C1(C)N=C(c2nc3ccccc3cc2C(=O)O)NC1=O` (configuration not stated) is 1.7-fold lower in LC retention time: 24.4 min for the first, 14.7 min for the second.

First: CC(C)NCC(O)c1ccc(NS(C)(=O)=O)cc1 (configuration not stated)
Second: CC(C)NCC(O)COc1cccc2ccccc12 (configuration not stated)
The LC retention time of the first is 2.4-fold lower: 9.08 min for the first, 21.8 min for the second.

`CN(C)CCC=C1c2ccccc2CCc2ccccc21` and `CC(C)NCC(O)COc1cccc2[nH]c3ccccc3c12` (configuration not stated) are within 1.5-fold of each other in LC retention time: 28.1 min for the first, 20 min for the second.

`CC(=O)CCCCn1c(=O)c2c(ncn2C)n(C)c1=O` and `CCCCc1c(C)nc(N(C)C)[nH]c1=O` are within 1.5-fold of each other in LC retention time: 17.4 min for the first, 23.4 min for the second.

`[2H]C([2H])([2H])NC(=O)ON=C(C)SC` and `[2H]c1c([2H])c([2H])c2[nH]c(NC(=O)OC)nc2c1[2H]` are within 1.5-fold of each other in LC retention time: 11.9 min for the first, 17.1 min for the second.

Going from `COc1cc(NS(=O)(=O)c2ccc(N)cc2)nc(OC)n1` to `COc1cc(OC)nc(NC(=O)NS(=O)(=O)Nc2ccccc2C(=O)C2CC2)n1`, the LC retention time rises from 15.5 min to 23.6 min (1.5-fold).

`CN(C)C(=O)Nc1cc(C(C)(C)C)on1` and `Cc1cc(C)cc(C(=O)N(NC(=O)c2ccc3c(c2C)CCCO3)C(C)(C)C)c1` are within 1.5-fold of each other in LC retention time: 21.6 min for the first, 27.9 min for the second.

First: OCCN(CCO)c1nc(N2CCCCC2)c2nc(N(CCO)CCO)nc(N3CCCCC3)c2n1
Second: COCCOc1ccccc1S(=O)(=O)NC(=O)Nc1nc(OC)nc(OC)n1
The LC retention time of the first is 1.8-fold higher: 28.4 min for the first, 15.5 min for the second.

`COc1cc(C)nc(-n2nc(C)cc2OC)n1` and `Oc1ccc2nc(-c3cscn3)[nH]c2c1` are within 1.5-fold of each other in LC retention time: 21.3 min for the first, 16.1 min for the second.

`CCOC(=O)CCN(SN(C)C(=O)Oc1cccc2c1OC(C)(C)C2)C(C)C` and `CCCC(=NOCC)C1=C(O)CC(CC(C)SCC)CC1=O` (configuration not stated) are within 1.5-fold of each other in LC retention time: 31.1 min for the first, 25.6 min for the second.

`CC(C(O)c1ccc(O)cc1)N1CCC(Cc2ccccc2)CC1` (configuration not stated) and `CC(C)NCC(O)COc1ccc(COCCOC(C)C)cc1` (configuration not stated) are within 1.5-fold of each other in LC retention time: 21 min for the first, 20 min for the second.

`COC(=O)NN=Cc1c[n+]([O-])c2ccccc2[n+]1[O-]` and `CC1=NNC(=O)N(N=Cc2cccnc2)C1` are within 1.5-fold of each other in LC retention time: 15 min for the first, 13 min for the second.

`[2H]c1c([2H])c(S(=O)(=O)Nc2cc(C)on2)c([2H])c([2H])c1N` showed an LC retention time of 9.83 min.
